Laboratory results taken from US20240024338A1, “CARBIDOPA AND L-DOPA PRODRUGS AND METHODS OF USE” (AbbVie Inc., priority 2016, published 2024).

Tests used:
[1] = 1-Day stability study of prodrugs in aqueous solution; type: physicochemical; conditions: aqueous solution 80 μg/mL, ambient storage, pH 7.0
Description: The L-dopa phosphate prodrugs and the carbidopa phosphate prodrugs were evaluated in a stability study.

[2] = 1-Day stability study, diphosphate combination solution; type: physicochemical; conditions: combination solution: L-dopa 3′,4′-diphosphate 35 mg/mL + carbidopa 3′,4′-diphosphate 8.7 mg/mL, pH 6.2, room temperature, nitrogen purged
Description: In addition, a solution combining the diphosphates of each compound (L-dopa 3′, 4′-diphosphate at 35 mg/mL and carbidopa 3′, 4′-diphosphate at 8.7 mg/mL) was monitored over one day at room temperature. This sample was purged with nitrogen to remove oxygen.

[3] = Phosphate prodrug solubility study in water; type: physicochemical; conditions: water, ambient, visual assessment, pH 5.5, Amorphous
Description: The L-dopa phosphate prodrugs and the carbidopa phosphate prodrugs were evaluated in a solubility study. The solubility values of the phosphate prodrugs in water under ambient conditions were determined by visual assessment. Table 13-A reports the results of the study, including the measured values for L-dopa and carbidopa.

[4] = In vitro bioconversion study (blood), human; type: in vitro ADME; conditions: prodrug 2.5 μg/mL, 37° C.
Description: (§2) The in vitro bioconversion of the L-dopa phosphate prodrugs to L-dopa and the carbidopa phosphate prodrugs to carbidopa was evaluated in several studies. In brief, the L-dopa and carbidopa phosphate prodrugs (2.5 μg/mL) were incubated with tissue homogenate or fractions from rats, mini-pigs, or human, including blood, skin homogenate (3 mg/mL), liver microsomes (1 mg/mL), liver S9 fraction (1 mg/mL), kidney S9 fraction (1 mg/mL), and intestine S9 fractions (1 mg/mL). The reaction mixtures were incubated at 37° C. for 5 to 6 time points within 1 to 2 hours. At the end of each time point, the reaction mixtures were quenched by 2 to 3 volumes of 5% trichloroacetic acid in water. After quenching, the mixtures were centrifuged at 3000 rpm for 20 minutes, and the supernatants were analyzed by LC-MS for quantitation of the prodrug, L-dopa or carbidopa. The in vitro bioconversion was assessed by monitoring both time-dependent depletion of the prodrug and the formation of the corresponding L-dopa or carbidopa.

[5] = In vitro bioconversion study (blood), mini-pig; type: in vitro ADME; conditions: prodrug 2.5 μg/mL, 37° C.
Description: as §2

[6] = In vitro bioconversion study (skin homogenates), human; conditions: human skin homogenate 3 mg/mL, prodrug 2.5 μg/mL, 37° C.
[7] = In vitro bioconversion study (skin homogenates), rat; conditions: rat skin homogenate 3 mg/mL, prodrug 2.5 μg/mL, 37° C.
[8] = In vitro bioconversion study (skin homogenates), mini-pig; conditions: mini-pig skin homogenate 3 mg/mL, prodrug 2.5 μg/mL, 37° C.
[9] = In vitro bioconversion study, human liver microsomes; type: in vitro ADME; conditions: human liver microsomes 1 mg/mL, prodrug 2.5 μg/mL, 37° C.
Description: as §2

[10] = In vitro bioconversion study, liver S9 fraction, rat; type: in vitro ADME; conditions: rat liver S9 fraction 1 mg/mL, prodrug 2.5 μg/mL, 37° C.
Description: as §2

[11] = In vitro bioconversion study, liver S9 fraction, mini-pig; type: in vitro ADME; conditions: mini-pig liver S9 fraction 1 mg/mL, prodrug 2.5 μg/mL, 37° C.
Description: as §2

[12] = In vitro bioconversion study, liver S9 fraction, human; type: in vitro ADME; conditions: human liver S9 fraction 1 mg/mL, prodrug 2.5 μg/mL, 37° C.
Description: as §2

[13] = In vitro bioconversion study, kidney S9 fraction, rat; type: in vitro ADME; conditions: rat kidney S9 fraction 1 mg/mL, prodrug 2.5 μg/mL, 37° C.
Description: as §2

[14] = In vitro bioconversion study, kidney S9 fraction, human; type: in vitro ADME; conditions: human kidney S9 fraction 1 mg/mL, prodrug 2.5 μg/mL, 37° C.
Description: as §2

[15] = In vitro bioconversion study (intestinal S9 fractions), human; type: in vitro ADME; conditions: human intestinal S9 fraction 1 mg/mL, prodrug 2.5 μg/mL, 37° C.
Excerpt: (§1) The t1/2 appeared to be shorter in human intestinal S9 than in rat intestinal S9.

[16] = In vitro bioconversion study (intestinal S9 fractions), rat; type: in vitro ADME; conditions: rat intestinal S9 fraction 1 mg/mL, prodrug 2.5 μg/mL, 37° C.
Excerpt: as §1

[17] = test system: rats; test: Local tolerability in rats, single SC bolus dose; type: in vivo; conditions: concentrations up to 125 mg/mL
[18] = In vitro bioconversion study (blood), rat; conditions: prodrug 2.5 μg/mL, 37° C.
Description: The in vitro bioconversion of the L-dopa phosphate prodrugs to L-dopa and the carbidopa phosphate prodrugs to carbidopa was evaluated in several studies. […] The reaction mixtures were incubated at 37° C. for 5 to 6 time points within 1 to 2 hours. At the end of each time point, the reaction mixtures were quenched by 2 to 3 volumes of 5% trichloroacetic acid in water. After quenching, the mixtures were centrifuged at 3000 rpm for 20 minutes, and the supernatants were analyzed by LC-MS for quantitation of the prodrug, L-dopa or carbidopa. The in vitro bioconversion was assessed by monitoring both time-dependent depletion of the prodrug and the formation of the corresponding L-dopa or carbidopa.

[19] = listed as diphosphate prodrug of L-dopa

## N[C@@H](Cc1ccc(OP(=O)(O)O)c(OP(=O)(O)O)c1)C(=O)O [L-dopa 3′,4′-diphosphate]
[1]
  % Remaining After One Day: >99%
[2]
  % Remaining After One Day: >99%
[3]
  Solubility: >330 mg/mL
[4]
  L-Dopa or Carbidopa Formation: Yes
  T1/2: 2.3 h
[5]
  L-Dopa or Carbidopa Formation: Yes
  T1/2: 2.08 h
[6]
  L-Dopa or Carbidopa Formation: No
  T1/2: stable
[7]
  L-Dopa or Carbidopa Formation: No
  T1/2: stable
[8]
  L-Dopa or Carbidopa Formation: No
  T1/2: stable
[9]
  stability and formation of L-dopa or carbidopa: stable without formation of L-dopa or carbidopa observed
[10]
  stability and formation of L-dopa or carbidopa: stable without formation of L-dopa or carbidopa observed
[11]
  stability and formation of L-dopa or carbidopa: stable without formation of L-dopa or carbidopa observed
[12]
  stability and formation of L-dopa or carbidopa: stable without formation of L-dopa or carbidopa observed
[13]
  stability and formation of L-dopa or carbidopa: stable without formation of L-dopa or carbidopa observed
[14]
  stability and formation of L-dopa or carbidopa: stable without formation of L-dopa or carbidopa observed
[15]
  L-Dopa or Carbidopa Formation: Yes
[15]; [19]
  T1/2: rapidly dephosphorylated
[16]
  L-Dopa or Carbidopa Formation: Yes
[16]; [19]
  T1/2: rapidly dephosphorylated
[17]
  clinical signs or microscopic findings of local intolerance: no adverse clinical signs or microscopic findings indicative of local intolerance
[18]
  L-Dopa or Carbidopa Formation: Yes
  T1/2: 6 min
